Reference: patent US8063101B2, “Carotenoid analogs and derivatives for the prevention of platelet aggregation” (Cardax Pharmaceuticals, Inc., priority 2007, dated 2011)
Where two headings read alike, the source gives them in different places.

Tests used:
[1] = system: platelets; test: Platelet-derived peroxynitrite release after IP3 stimulation; type: cell-based; conditions: IP3 1.0 μM; for effect on platelet ONOO— release: compound alone at 1.0 μM, FIG. 12
From the text: Values are reported as mean±S.D. (N=5). *p<0.001 and †p<0.05 versus control; §p<0.001 versus aspirin treatment (ANOVA Student-Newman-Keuls multiple comparisons test; overall ANOVA: p<0.0001; F=52.475). […] Values are reported as mean±S.D. (N=5). *p<0.001 versus control and †p<0.001 versus aspirin alone (ANOVA Student-Newman-Keuls multiple comparisons test; overall ANOVA: p<0.0001; F=21.905). Abbreviations: Astax=Astaxanthin. […] Values are reported as mean±S.D. (N=5). *p<0.05 and **p<0.001 versus control; †p<0.05 and ‡p<0.001 versus simvastatin alone (ANOVA Student-Newman-Keuls multiple comparisons test; overall ANOVA: p<0.0001; F=13.716). Abbreviations: Astax=Astaxanthin; Simva=Simvastatin.

[2] = system: platelets; test: Platelet nitric oxide/peroxynitrite release ratio after IP3 stimulation; type: cell-based; conditions: IP3 1.0 μM
From the text: Values are reported as mean±S.D. (N=5). *p<0.05 and **p<0.001 versus control; †p<0.01 and ‡p<0.001 versus aspirin alone (ANOVA Student-Newman-Keuls multiple comparisons test; overall ANOVA: p<0.0001; F=129.98). Abbreviations: Astax=Astaxanthin. […] Values are reported as mean±S.D. (N=5). *p<0.05 and **p<0.001 versus control; †p<0.001 versus simvastatin alone (ANOVA Student-Newman-Keuls multiple comparisons test; overall ANOVA: p<0.0001; F=84.477). Abbreviations: Astax=Astaxanthin; Simva=Simvastatin. […] Values are reported as mean±S.D. (N=5). *p<0.05 and †p<0.001 versus control; §p<0.001 versus astaxanthin treatment (ANOVA Student-Newman-Keuls multiple comparisons test; overall ANOVA: p<0.0001; F=40.020).

[3] = system: human umbilical vein endothelial cells (HUVEC); test: CaI-stimulated NO/OONO- release ratio from HUVEC; type: cell-based; conditions: 3S,3′S-AST 5.0 μM, clopidogrel 1.0 μM, alone or in combination; FIG. 7
Description: (§1) Human umbilical vein endothelial cells (HUVECs) were isolated into primary cultures from white female donors by Clonetics (San Diego, Calif.), essentially as described (Mason et al. 2005). All donors were reported to be healthy and none had pregnancy or prenatal complications. All measurements were recorded in vitro using a sensitive porphyrinic probe, also as previously described. HUVEC cells were grown in Ham's F12K medium with 2 mM L-glutamine adjusted to contain 1.5 g/L sodium bicarbonate and supplemented with 0.1 mg/mL heparin and 0.03-0.05 mg/mL endothelial cell growth supplement (ECGS) plus 10% fetal bovine serum. The HUVEC cells were kept in an atmosphere of elevated CO2 concentration (5%).

[4] = system: human umbilical vein endothelial cells (HUVEC); test: Calcium ionophore (CaI)-stimulated total nitric oxide release from HUVEC; type: cell-based; conditions: 3S,3′S-AST 5.0 μM, clopidogrel 1.0 μM, alone or in combination; FIG. 5
Description: as §1
All measurements of NO release were conducted in Hank's balanced salt solution (HBSS) at 37° C. The sensor operated with a three-electrode system: nanosensor (working electrode), saturated calomel electrode (reference electrode), and platinum wire (counter electrode, 0.5 mm diameter). The three electrodes were connected to a potentiostat/galvanostat PAR273. […] The current (amps) proportional to the NO concentration was measured with the sensor, which operated in amperometric mode at a constant potential of 0.63 V. Data were acquired with the use of custom software. Amperograms (current vs. time curves) were recorded with a Guniry FAS1 Femtostat (Warminster, Pa.).

[5] = system: human umbilical vein endothelial cells (HUVEC); test: Calcium ionophore (CaI)-stimulated total peroxynitrite release from HUVEC; type: cell-based; conditions: 3S,3′S-AST 5.0 μM, clopidogrel 1.0 μM, alone or in combination; FIG. 6
Description: as §1

[6] = design: species or system rats; conditions: in vivo, po, 500 mg/kg
Description: In one experiment, astaxanthin; all-trans 3S,3'S-astaxanthin diester disuccinate disodium salt (hereinafter “ADS”); and all-trans 3S,3'S-astaxanthin diester […] tetrahydrochloride salt (hereinafter “ADL”) were administered orally to separate rats as a lipid suspension. A single dose that included 500 mg/kg of the carotenoid/carotenoid derivative was administered to each rat. (See FIG. 20, PK Study #CXPK07201). Plasma from each of the rats was collected 4 hours after ingestion and 8 hours after ingestion and all samples were analyzed by high performance liquid chromatography (“HPLC”). HPLC analysis was used to detect the presence of free underivatized carotenoid (e.g., in this example, astaxanthin) in the plasma. HPLC chromatograms were collected for each plasma sample taken.

[7] = system: vascular platelets; test: Platelet-derived nitric oxide (NO) release after IP3 stimulation, NO nanosensor; type: cell-based, Wistar-Kyoto (WKY) rats
Description: Wistar-Kyoto (WKY) rats were anaesthetized and blood was collected directly from the heart using a 10 mL syringe that contained 3.8% sodium citrate (9:1, v v^−1). […] The platelet rich plasma (PRP) was then removed by aspiration. […] The number of platelets was counted and adjusted to 3.5×10^8 per mL with Tyrode-HEPES buffer. The platelets were incubated in an aggregometer with a NO nanosensor (working electrode) placed in the platelet suspension. […] All measurements of NO release were conducted in Hank's balanced salt solution (HBSS) at 37° C. The sensor operated with a three-electrode system: nanosensor (working electrode), saturated calomel electrode (reference electrode), and platinum wire (counter electrode, 0.5 mm diameter). The three electrodes were connected to a potentiostat/galvanostat PAR273. The baseline was stabilized after ˜20 s. With a nanoinjector, the test compounds were injected onto the surface of the cells following solubilization in buffer. In experiments with multiple compounds, the compounds were injected simultaneously. […] Data were acquired with the use of custom software. Amperograms (current vs. time curves) were recorded with a Guniry FAS1 Femtostat (Warminster, Pa.). The nanosensor for NO was calibrated using saturated solution (concentration 1.82 mM verified with the coulometric method). […] The data were presented as mean±S.D. for each of the triplicate measurements. The data (calculation and plotting) were transferred to Microcal Origin Software (OriginLab Corp., Northampton, Mass.). […] The NO concentration was calculated using current responses obtained from standard NO solution (prepared from […] stock solution, saturated aqueous NO solution).

[8] = Dog PK of astaxanthin derivatives (CXPK07402, 07404, 07405, 07406); conditions: dog, in vivo, po, 20 mg/kg
Description: In another experiment, ADL was administered to non-naïve beagle dogs orally (as an aqueous suspension containing 0.5% carboxymethylcellulose) and intravenously as an aqueous solution. Oral doses that included 10 mg/kg of the carotenoid derivative, 100 mg/kg of the carotenoid derivative, and 500 mg/kg of the carotenoid derivative were administered to each dog. The intravenous dosage was 5 mg/kg. (See FIG. 20, PK Study #CXPK07402). For each carotenoid derivative given to the dogs in this example, the amount of all astaxanthin isomers, the amount of trans astaxanthin isomers, and the amount of cis astaxanthin isomers in the plasma was determined at predefined time intervals for 3 days (72 hours).
In another experiment, ADL was administered to naïve beagle dogs orally (as an aqueous suspension containing 0.5% carboxymethylcellulose) twice a day for six days. Each oral dose included 75 mg/kg of the carotenoid derivative. (See FIG. 20, PK Study #CXPK07404). For each carotenoid derivative given to the dogs in this example, the amount of all astaxanthin isomers, the amount of trans astaxanthin isomers, and the amount of cis astaxanthin isomers in the plasma was determined at predefined time intervals for 6 days.
In another experiment, all-trans 3S,3′ S-astaxanthin diester di-beta-alanine dihydrochloride salt (hereinafter “ADA”); ADG; ADL; ADSa; and ADS were administered orally to separate non-naïve dogs as a aqueous suspension containing 0.5% carboxymethylcellulose. A single dose that included 20 mg/kg of the carotenoid derivative was administered to each dog. (See FIG. 20, PK Study #CXPK07405). For each carotenoid derivative given to the dogs in this example, the amount of all astaxanthin isomers was determined at predefined time intervals for 3 days (72 hours).
In another experiment, ADG or ADSa was administered to non-naïve beagle dogs orally (as an aqueous suspension containing 0.5% carboxymethylcellulose). Oral doses included either 50 mg/kg of the carotenoid derivative or 100 mg/kg of the carotenoid derivative. (See FIG. 20, PK Study #CXPK07406). For each carotenoid derivative given to the dogs in this example, the amount of all astaxanthin isomers, the amount of trans astaxanthin isomers, and the amount of cis astaxanthin isomers in the plasma was determined at predefined time intervals for 3 days (72 hours).

[9] = Monkey PK oral and intravenous (CXPK07502); type: in vivo; conditions: monkeys; oral 10, 300, 500 mg/kg and intravenous 5 mg/kg
[10] = rat, in vivo
Description: In a another experiment, all-trans 3S,3′S-astaxanthin diester diglycinate dihydrochloride salt (hereinafter “ADG”); all-trans 3S,3′S-astaxanthin diester disarcosinate dihydrochloride salt (hereinafter “ADSa”); and ADL were administered orally to separate rats as a aqueous suspension containing 0.5% carboxymethylcellulose. A single dose that included 40 mg/kg of the carotenoid derivative was administered to each rat. (See FIG. 20, PK Study #CXPK07202). For each carotenoid derivative given to the rats in this example, the amount of all astaxanthin isomers, the amount of trans astaxanthin isomers, and the amount of cis astaxanthin isomers in the plasma was determined at predefined time intervals for 3 days (72 hours).
In another experiment, ADG; ADSa; and ADL were administered to separate rats intravenously as an aqueous solution. A single dose that included 5 mg/kg of the carotenoid derivative was administered to each rat. (See FIG. 20, PK Study #CXPK07202). For each carotenoid derivative given to the rats in this example, the amount of all astaxanthin isomers, the amount of trans astaxanthin isomers, and the amount of cis astaxanthin isomers in the plasma was determined at predefined time intervals for 3 days (72 hours).

[11] = astaxanthin combined with aspirin 1.0 μM, IP3 1.0 μM, FIG. 14

SMILES | effect on platelet ONOO— release [1] | effect on NO/ONOO— ratio ([2]; aspirin separately, 1.0 μM) | effect of astaxanthin on aspirin-induced ONOO— release ([1]; increasing astaxanthin with aspirin 1.0 μM, FIG. 13) | effect on CaI-stimulated NO/OONO− release ratio from HUVEC [3] | effect on CaI-stimulated total nitric oxide release from HUVEC [4] | effect on CaI-stimulated total peroxynitrite (OONO−) release from HUVEC [5] | NOS coupling efficiency (ratio of NO/ONOO—), increase over control levels as well as aspirin alone ([2]; astaxanthin combined with aspirin 1.0 μM) | free astaxanthin in rat plasma [6] | sustained production of NO with time (amperogram) ([7]; IP3-stimulated, 3S,3′S-AST 5.0 μM alone or with clopidogrel 1.0 μM, FIG. 4) [s] | mean increase in capacity to generate bioavailable NO vs. controls ([7]; IP3 stimulation, homochiral astaxanthin 5.0 μM alone) | increase in platelet NO generation/release vs. mean control levels ([7]; IP3 stimulation, homochiral astaxanthin 5 μM, clopidogrel 1 μM, each as monotherapy) [%] | total NO release from vascular platelets ([7]; IP3 stimulation, homochiral astaxanthin 5.0 μM, clopidogrel 1.0 μM, controls 6.6±0.3, mean±S.D.) | increase in NO release over untreated samples [7, 11] [fold] | potentiation of the NO release observed by aspirin alone [7, 11] [%] | effect of astaxanthin on simvastatin's platelet-derived NO release ([7]; increasing astaxanthin with simvastatin 1.0 μM, IP3 1.0 μM) | absorption and metabolism to astaxanthin in plasma [8] | absorption and metabolism to astaxanthin in plasma [9] | absorption and metabolism to astaxanthin in plasma ([10]; iv, 5 mg/kg) | absorption and metabolism to astaxanthin in plasma ([10]; po, 40 mg/kg)
CC(=O)Oc1ccccc1C(=O)O [aspirin, reference compound] | increased | failed to produce a favorable effect | – | – | – | – | – | – | – | – | – | – | – | – | – | – | – | – | –
CC1=C(/C=C/C(C)=C/C=C/C(C)=C/C=C/C=C(C)/C=C/C=C(C)/C=C/C2=C(C)C(=O)[C@@H](O)CC2(C)C)C(C)(C)C[C@H](O)C1=O [homochiral astaxanthin, astaxanthin] | decreased | – | reverse the effect of aspirin on ONOO— release in a dose-dependent manner | Statistically significant increases | Statistically significant increases | Statistically significant decreases | approximately three-fold | no significant amount | 13 | two-fold | ~100 | 12.9±0.3 molecules NO×10^6/platelet | 3 | 80 | enhanced the effect of simvastatin on platelet-derived NO release in a dose-dependent fashion | – | – | – | –
CNCC(=O)O[C@H]1CC(C)(C)C(/C=C/C(C)=C/C=C/C(C)=C/C=C/C=C(C)/C=C/C=C(C)/C=C/C2=C(C)C(=O)[C@@H](OC(=O)CNC)CC2(C)C)=C(C)C1=O.Cl.Cl (relative stereo) [ADSa, all-trans 3S,3′S-astaxanthin diester disarcosinate dihydrochloride salt] | – | – | – | – | – | – | – | – | – | – | – | – | – | – | – | absorbed by the dogs and metabolized | absorbed by the monkeys and metabolized | absorbed by the rats and metabolized | absorbed by the rats and metabolized
